Source: ChEMBL document CHEMBL3421549, “2-Aryl-3-methyloctahydrophenanthrene-2,3,7-triols as potent dissociated glucocorticoid receptor agonists” (J Med Chem, 2015)

Experiments:
Glucocorticoid receptor [1] = molecular target: T1, Glucocorticoid receptor (Homo sapiens, UniProt P04150)
T1 sequence (P04150 whole entry): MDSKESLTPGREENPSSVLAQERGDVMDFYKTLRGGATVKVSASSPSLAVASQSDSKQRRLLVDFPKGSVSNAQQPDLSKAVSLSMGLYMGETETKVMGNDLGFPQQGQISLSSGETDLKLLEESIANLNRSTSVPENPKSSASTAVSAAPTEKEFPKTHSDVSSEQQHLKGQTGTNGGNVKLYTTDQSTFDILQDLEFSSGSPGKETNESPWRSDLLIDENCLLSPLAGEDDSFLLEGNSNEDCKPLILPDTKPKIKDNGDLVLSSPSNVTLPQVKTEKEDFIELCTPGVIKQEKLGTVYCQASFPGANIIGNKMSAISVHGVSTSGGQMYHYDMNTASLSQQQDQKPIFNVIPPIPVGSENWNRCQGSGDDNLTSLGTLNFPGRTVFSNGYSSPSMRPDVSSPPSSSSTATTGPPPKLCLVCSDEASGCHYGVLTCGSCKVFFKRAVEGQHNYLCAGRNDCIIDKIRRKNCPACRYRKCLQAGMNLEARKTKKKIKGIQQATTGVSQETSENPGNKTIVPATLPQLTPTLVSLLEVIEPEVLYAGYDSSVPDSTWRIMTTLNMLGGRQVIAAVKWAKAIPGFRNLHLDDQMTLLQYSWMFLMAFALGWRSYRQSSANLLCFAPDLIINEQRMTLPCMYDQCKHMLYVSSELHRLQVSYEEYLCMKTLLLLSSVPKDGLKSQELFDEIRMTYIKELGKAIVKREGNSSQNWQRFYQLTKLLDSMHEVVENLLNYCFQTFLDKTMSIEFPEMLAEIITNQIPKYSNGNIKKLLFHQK
Description: Transrepression activity at glucocorticoid receptor in human whole blood assessed as repression of IL-1-induced TNF-alpha production after 4 hrs by ELISA

Estrogen receptor = molecular target: T2, Estrogen receptor (Homo sapiens, UniProt P03372); experiment: Binding affinity to human ER-alpha
T2 sequence (P03372 whole entry): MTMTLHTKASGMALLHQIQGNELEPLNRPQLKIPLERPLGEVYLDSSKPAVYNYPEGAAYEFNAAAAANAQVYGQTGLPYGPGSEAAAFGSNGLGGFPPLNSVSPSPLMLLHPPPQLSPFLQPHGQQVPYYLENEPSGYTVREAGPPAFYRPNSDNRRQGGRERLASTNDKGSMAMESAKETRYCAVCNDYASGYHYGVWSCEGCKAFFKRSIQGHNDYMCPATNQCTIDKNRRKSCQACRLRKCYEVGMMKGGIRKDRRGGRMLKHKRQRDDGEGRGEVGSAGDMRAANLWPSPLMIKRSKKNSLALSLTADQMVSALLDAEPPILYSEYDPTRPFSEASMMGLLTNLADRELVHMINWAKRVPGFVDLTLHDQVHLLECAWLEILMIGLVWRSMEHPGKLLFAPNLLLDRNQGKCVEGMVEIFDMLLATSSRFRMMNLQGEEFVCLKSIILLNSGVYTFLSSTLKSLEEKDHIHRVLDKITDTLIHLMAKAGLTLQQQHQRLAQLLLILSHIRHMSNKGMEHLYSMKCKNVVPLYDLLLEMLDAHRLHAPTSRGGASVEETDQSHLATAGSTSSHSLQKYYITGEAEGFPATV

Estrogen receptor beta = Estrogen receptor beta (Homo sapiens, UniProt Q92731); experiment: Binding affinity to human ER-beta
Estrogen receptor beta, sequence (Q92731 whole entry): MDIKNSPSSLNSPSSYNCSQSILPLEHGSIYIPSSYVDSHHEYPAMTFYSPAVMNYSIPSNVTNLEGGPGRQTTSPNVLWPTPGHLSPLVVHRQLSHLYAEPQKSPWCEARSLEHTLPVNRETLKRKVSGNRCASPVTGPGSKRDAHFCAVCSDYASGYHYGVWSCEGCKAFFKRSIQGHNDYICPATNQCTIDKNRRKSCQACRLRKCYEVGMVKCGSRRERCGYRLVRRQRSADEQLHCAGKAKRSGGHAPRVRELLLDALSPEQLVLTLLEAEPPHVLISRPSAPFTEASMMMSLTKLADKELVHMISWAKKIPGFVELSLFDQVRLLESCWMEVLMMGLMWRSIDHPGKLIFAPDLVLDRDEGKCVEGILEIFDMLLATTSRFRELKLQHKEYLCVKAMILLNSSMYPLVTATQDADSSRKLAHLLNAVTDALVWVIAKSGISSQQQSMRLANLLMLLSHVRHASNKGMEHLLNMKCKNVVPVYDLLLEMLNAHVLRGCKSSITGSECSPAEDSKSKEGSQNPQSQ

Glucocorticoid receptor [2] = molecular target: T1, Glucocorticoid receptor; experiment: Transrepression activity at glucocorticoid receptor in human SW1353 cells assessed as repression of IL-1-induced MMP-13 production after 24 hrs by ELISA; type: cell-based
Androgen receptor = molecular target: T3, Androgen receptor (Homo sapiens, UniProt P10275); experiment: Binding affinity to human AR
T3 sequence (P10275 whole entry): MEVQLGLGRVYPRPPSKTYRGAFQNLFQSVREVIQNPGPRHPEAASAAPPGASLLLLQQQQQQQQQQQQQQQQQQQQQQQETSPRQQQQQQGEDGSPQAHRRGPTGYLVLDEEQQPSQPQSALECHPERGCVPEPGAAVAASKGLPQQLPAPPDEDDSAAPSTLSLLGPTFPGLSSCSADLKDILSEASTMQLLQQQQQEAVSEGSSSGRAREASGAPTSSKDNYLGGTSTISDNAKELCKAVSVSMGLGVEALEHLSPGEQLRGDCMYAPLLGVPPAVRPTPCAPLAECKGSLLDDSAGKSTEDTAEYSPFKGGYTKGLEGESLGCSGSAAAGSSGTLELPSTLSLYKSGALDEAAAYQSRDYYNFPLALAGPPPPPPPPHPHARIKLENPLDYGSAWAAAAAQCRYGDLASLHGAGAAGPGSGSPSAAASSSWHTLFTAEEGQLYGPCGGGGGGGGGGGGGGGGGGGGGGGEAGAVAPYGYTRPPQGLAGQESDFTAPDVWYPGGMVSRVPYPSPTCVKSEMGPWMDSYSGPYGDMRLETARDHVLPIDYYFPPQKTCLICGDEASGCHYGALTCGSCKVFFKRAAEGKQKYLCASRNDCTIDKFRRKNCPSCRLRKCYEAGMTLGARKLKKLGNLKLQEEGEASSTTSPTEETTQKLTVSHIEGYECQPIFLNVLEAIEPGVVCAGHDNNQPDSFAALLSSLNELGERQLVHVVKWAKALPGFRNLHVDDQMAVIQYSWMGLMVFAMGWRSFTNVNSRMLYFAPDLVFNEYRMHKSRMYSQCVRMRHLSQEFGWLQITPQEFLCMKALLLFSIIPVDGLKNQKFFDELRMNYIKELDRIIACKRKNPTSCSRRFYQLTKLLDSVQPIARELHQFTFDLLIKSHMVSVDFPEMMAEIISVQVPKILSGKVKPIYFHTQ

Glucocorticoid receptor [3] = molecular target: T1, Glucocorticoid receptor; remark: listed apart in the source
Description: Binding affinity to human GR

Progesterone receptor = molecular target: T4, Progesterone receptor (Homo sapiens, UniProt P06401); experiment: Binding affinity to human PR
T4 sequence (P06401 whole entry): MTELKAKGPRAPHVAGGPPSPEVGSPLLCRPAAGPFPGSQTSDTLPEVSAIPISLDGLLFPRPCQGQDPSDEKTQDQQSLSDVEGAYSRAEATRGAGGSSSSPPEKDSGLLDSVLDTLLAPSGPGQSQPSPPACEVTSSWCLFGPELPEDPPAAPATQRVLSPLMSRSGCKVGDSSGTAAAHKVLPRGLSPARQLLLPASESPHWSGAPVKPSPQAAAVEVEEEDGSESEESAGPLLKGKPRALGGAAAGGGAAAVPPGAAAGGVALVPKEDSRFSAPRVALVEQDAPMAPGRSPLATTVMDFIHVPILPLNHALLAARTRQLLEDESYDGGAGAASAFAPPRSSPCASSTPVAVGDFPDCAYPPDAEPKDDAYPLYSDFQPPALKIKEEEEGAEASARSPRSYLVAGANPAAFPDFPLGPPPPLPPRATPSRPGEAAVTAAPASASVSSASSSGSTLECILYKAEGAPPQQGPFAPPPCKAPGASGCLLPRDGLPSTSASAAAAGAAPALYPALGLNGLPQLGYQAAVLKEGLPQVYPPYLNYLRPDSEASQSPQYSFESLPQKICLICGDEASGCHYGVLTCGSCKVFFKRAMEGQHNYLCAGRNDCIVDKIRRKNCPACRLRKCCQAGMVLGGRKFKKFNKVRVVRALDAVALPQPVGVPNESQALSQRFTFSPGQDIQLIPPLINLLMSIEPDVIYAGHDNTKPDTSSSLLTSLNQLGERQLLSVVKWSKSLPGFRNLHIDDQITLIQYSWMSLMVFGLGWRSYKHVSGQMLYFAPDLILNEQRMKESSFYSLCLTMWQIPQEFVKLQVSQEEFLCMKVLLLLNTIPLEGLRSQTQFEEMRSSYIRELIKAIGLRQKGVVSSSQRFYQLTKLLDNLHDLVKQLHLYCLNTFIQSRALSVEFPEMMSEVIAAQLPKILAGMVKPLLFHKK

Row | Structure (SMILES) | IC50 (Glucocorticoid receptor [1]) [nM] | IC50 (Estrogen receptor) [nM] | IC50 (Estrogen receptor beta) [nM] | IC50 (Glucocorticoid receptor [2]) [nM] | IC50 (Androgen receptor) [nM] | IC50 (Glucocorticoid receptor [3]) [nM] | IC50 (Progesterone receptor) [nM]
1 | CC[C@@]12C[C@@](C)(O)[C@](O)(c3ccccn3)C[C@H]1CCc1cc(O)ccc12 | 167 |  |  | 1.5 |  | 1.5 | 
2 | CC[C@@]12C[C@@](C)(O)[C@](O)(c3nccs3)C[C@H]1CCc1cc(O)ccc12 | 83 |  |  | 1.5 |  | 0.79 | 
3 | CC[C@@]12C[C@@](C)(O)[C@@](C)(O)C[C@H]1CCc1cc(O)ccc12 |  |  |  |  |  | 211 | 
4 | CCC[C@]1(O)C[C@H]2CCc3cc(O)ccc3[C@]2(CC)C[C@@]1(C)O |  |  |  | > 5000 |  | 20.1 | 
5 | C=CC[C@]1(O)C[C@H]2CCc3cc(O)ccc3[C@]2(CC)C[C@@]1(C)O |  |  |  | > 5000 |  | 35.4 | 
6 | CC#C[C@]1(O)C[C@H]2CCc3cc(O)ccc3[C@]2(CC)C[C@@]1(C)O |  |  |  | 1.9 |  | 1.5 | 
7 | CC[C@@]12C[C@@](C)(O)[C@](O)(c3ccccc3)C[C@H]1CC(=O)c1cc(OC(=O)c3ccccc3)ccc12 |  |  |  | 28 |  | 1.7 | 
8 | CC[C@@]12C[C@@](C)(O)[C@](O)(CC)C[C@H]1CCc1cc(O)ccc12 (mixture of isomers) |  |  |  | > 5000 |  | 47 | 
9 | C=C[C@]1(O)C[C@H]2CCc3cc(O)ccc3[C@]2(CC)C[C@@]1(C)O (mixture of isomers) |  |  |  | 650 |  | 12.1 | 
10 | C/C=C/[C@]1(O)C[C@H]2CCc3cc(O)ccc3[C@]2(CC)C[C@@]1(C)O (mixture of isomers) |  |  |  | 6 |  | 2.1 | 
11 | Cc1noc(=O)c2ccc(NC(=O)C(O)(CC3(c4cc(F)ccc4Cl)CCC3)C(F)(F)F)cc12 (racemic) | 1000 | > 100000 | > 100000 | 7.5 | 40 | 0.4 | 0.2

The next lines start with the values.

Row | IC50 (Glucocorticoid receptor [1]) [nM] | IC50 (Estrogen receptor) [nM] | IC50 (Estrogen receptor beta) [nM] | IC50 (Glucocorticoid receptor [2]) [nM] | IC50 (Androgen receptor) [nM] | IC50 (Glucocorticoid receptor [3]) [nM] | IC50 (Progesterone receptor) [nM] | Structure (SMILES)
12 | 109 | > 3200 | > 3200 | 3.5 | 300 | 0.6 | 321 | CC[C@@]12C[C@@](C)(O)[C@](O)(c3ccccc3)C[C@H]1CCc1cc(O)ccc12
13 |  |  |  | 6 |  | 1.2 |  | CC[C@@]12C[C@](O)(CC)[C@](O)(c3ccccc3)C[C@H]1CCc1cc(O)ccc12
14 |  |  |  | > 5000 |  | 5.2 |  | C=C[C@@]1(O)C[C@@]2(CC)c3ccc(O)cc3CC[C@@H]2C[C@@]1(O)c1ccccc1
15 |  |  |  | > 5000 |  | 38 |  | CC[C@@]12C[C@](C)(O)[C@](O)(c3ccccc3)C[C@H]1CCc1cc(O)ccc12
16 |  |  |  | 12 |  | 1.3 |  | CC[C@@]12C[C@@](C)(O)[C@](O)(c3ccc(C)cc3)C[C@H]1CCc1cc(O)ccc12
17 |  |  |  | 80 |  | 22 |  | CC[C@@]12C[C@@](C)(O)[C@](O)(c3cccnc3)C[C@H]1CCc1cc(O)ccc12
18 |  |  |  | 100 |  | 9.1 |  | CC[C@@]12C[C@@](C)(O)[C@](O)(c3ccncc3)C[C@H]1CCc1cc(O)ccc12
19 | 72.5 |  |  | 5 |  | 2.5 |  | CC[C@@]12C[C@@](C)(O)[C@](O)(c3ccccc3)C[C@H]1CC(=O)c1cc(O)ccc12
20 |  |  |  | > 5000 |  | 79 |  | CC[C@@]12C[C@@](C)(O)[C@](O)(c3ccccc3)C[C@H]1C[C@@H](O)c1cc(O)ccc12
21 | 400 |  |  | 4 |  | 0.3 |  | CC[C@@]12C[C@@](C)(O)[C@](O)(c3ccccc3)C[C@H]1C=Cc1cc(O)ccc12
22 | 43 |  |  | 0.6 |  | 0.67 |  | CC[C@@]12C[C@@](C)(O)[C@](O)(c3ccccc3)C[C@H]1C=C(C)c1cc(O)ccc12
23 |  |  |  | > 5000 |  |  |  | CC[C@@]12CC[C@](O)(c3ccccc3)C[C@H]1CCc1cc(O)ccc12
24 |  |  |  | > 5000 |  |  |  | CC[C@@]12C[C@@H](O)[C@](O)(c3ccccc3)C[C@H]1CCc1cc(O)ccc12
